For assay [1], the target named is Delta-type opioid receptor (Homo sapiens, UniProt P41143). Nature of the assay: Displacement of [3H]Cl-DPDPE from human recombinant DOR expressed in CHO cells.
Assay [2] is described as follows: Binding affinity to DOR in guinea pig brain membrane.

The source of these data is BindingDB's records for doi:10.1021/jm0604777 (University of Bristol, 2006).

SMILES strings stand for the structures.

Delta-type opioid receptor, sequence (P41143 whole entry): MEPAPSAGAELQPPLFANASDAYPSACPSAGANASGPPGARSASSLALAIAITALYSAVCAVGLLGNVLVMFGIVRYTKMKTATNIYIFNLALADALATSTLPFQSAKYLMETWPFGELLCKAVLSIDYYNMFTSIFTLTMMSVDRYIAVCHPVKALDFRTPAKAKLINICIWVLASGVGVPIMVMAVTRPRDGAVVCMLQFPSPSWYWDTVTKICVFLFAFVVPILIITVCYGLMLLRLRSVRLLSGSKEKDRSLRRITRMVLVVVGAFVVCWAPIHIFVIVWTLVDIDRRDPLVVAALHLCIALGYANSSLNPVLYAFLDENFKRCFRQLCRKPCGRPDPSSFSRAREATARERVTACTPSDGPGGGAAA

Consider `Cc1ccc(CCC(=O)N[C@@]23CCC(=O)[C@@H]4Oc5c(O)ccc6c5[C@@]42CCN(C)C3C6)cc1` [N-[(1R,13R,17S)-10-hydroxy-4-methyl-14-oxo-12-oxa-4-azapentacyclo[9.6.1.0^{1,13}.0^{5,17}.0^{7,18}]octadeca-7(18),8,10-trien-17-yl]-3-(4-methylphenyl)propanamide], for which the Ki in assay [1] came out at 1.3 nM.

`COc1ccc2c3c1O[C@H]1C(=O)CC[C@@]4(NC(=O)/C=C/c5ccccc5Cl)C(C2)N(CC2CC2)CC[C@]314` [N-cyclopropylmethyl-14beta-(2'-chlorocinnamoylamino)-7,8-dihydronorcodeinone]: the inhibition constant (Ki) in assay [2] turned out to be 7.2 nM.

In assay [2], `COc1ccc2c3c1O[C@H]1C(=O)CC[C@@]4(NC(=O)/C=C/c5ccccc5C)C(C2)N(CC2CC2)CC[C@]314` [N-cyclopropylmethyl-14beta-(2'-methylcinnamoylamino)-7,8-dihydronorcodeinone] had a Ki of 2.3 nM.

As to `Cc1ccccc1/C=C/C(=O)N[C@@]12CCC(=O)[C@@H]3Oc4c(O)ccc5c4[C@@]31CCN(CC1CC1)C2C5` [N-cyclopropylmethyl-14beta-(2'-methylcinnamoylamino)-7,8-dihydronormorphinone], the Ki in assay [1] is 1.3 nM.
